Laboratory results as given in the NIST ThermoML archive (doi:10.1021/je0504156).
Numbers after ± are expanded uncertainties.

Columns and labels:
[1] = xn = mol fraction of the nth substance listed; conditions: 101 kPa, Liquid
[2] = 101 kPa, Liquid

CO [methanol] + Cc1cccc(O)c1
[1], x2 = 0
Conditions | mass density [kg/m3] | viscosity [mPa·s]
308.15 K | 776.92 ± 0.97 | 0.476 ± 0.014
313.15 K | 772.13 ± 0.98 | 0.445 ± 0.013
318.15 K | 767.31 ± 1 | 0.421 ± 0.013
323.15 K | 762.46 ± 1 | 0.395 ± 0.012
328.15 K | 757.85 ± 1 | 0.372 ± 0.012

OCCO [1,2-ethanediol]
[2]
Conditions | mass density [kg/m3] | viscosity [mPa·s]
308.15 K | 1101.88 ± 0.66 | 11.19 ± 0.21
313.15 K | 1098.33 ± 0.65 | 9.444 ± 0.18
318.15 K | 1094.75 ± 0.64 | 7.972 ± 0.16
323.15 K | 1091.16 ± 0.63 | 6.794 ± 0.14
333.15 K | 1083.94 ± 0.61 | 5.065 ± 0.11
343.15 K | 1074.53 ± 4 | 3.879 ± 0.086
353.15 K | 1069.72 ± 0.57 | 3.058 ± 0.069

OCCO [1,2-ethanediol] + Cc1cccc(O)c1
[1], x2 = 0
Conditions | mass density [kg/m3] | viscosity [mPa·s]
308.15 K | 1101.88 ± 0.66 | 11.19 ± 0.21
313.15 K | 1098.33 ± 0.65 | 9.444 ± 0.18
318.15 K | 1094.75 ± 0.64 | 7.972 ± 0.16
323.15 K | 1091.16 ± 0.63 | 6.794 ± 0.14
333.15 K | 1083.94 ± 0.61 | 5.065 ± 0.11
343.15 K | 1074.53 ± 4 | 3.879 ± 0.086
353.15 K | 1069.72 ± 0.57 | 3.058 ± 0.069

CO [methanol]
[2]
Conditions | mass density [kg/m3] | viscosity [mPa·s]
308.15 K | 776.92 ± 0.97 | 0.476 ± 0.014
313.15 K | 772.13 ± 0.98 | 0.445 ± 0.013
318.15 K | 767.31 ± 1 | 0.421 ± 0.013
323.15 K | 762.46 ± 1 | 0.395 ± 0.012
328.15 K | 757.85 ± 1 | 0.372 ± 0.012

Cc1cccc(O)c1 [3-methylphenol]
[2]
Conditions | mass density [kg/m3] | viscosity [mPa·s]
308.15 K | 1021.64 ± 0.61 | 7.701 ± 0.15
313.15 K | 1017.63 ± 0.6 | 6.12 ± 0.13
318.15 K | 1013.6 ± 0.59 | 5.022 ± 0.11
323.15 K | 1009.56 ± 0.58 | 4.158 ± 0.094
328.15 K | 1005.93 ± 0.57 | 3.518 ± 0.08
333.15 K | 1001.44 ± 0.57 | 2.98 ± 0.068
343.15 K | 991.33 ± 4 | 2.231 ± 0.052
353.15 K | 985.42 ± 0.58 | 1.759 ± 0.042

Cc1cccc(O)c1 [3-methylphenol] + CO
[1]
Conditions | mass density, 308.15 K [kg/m3] | mass density, 313.15 K [kg/m3] | mass density, 318.15 K [kg/m3] | mass density, 323.15 K [kg/m3] | mass density, 328.15 K [kg/m3] | viscosity, 308.15 K [mPa·s] | viscosity, 313.15 K [mPa·s] | viscosity, 318.15 K [mPa·s] | viscosity, 323.15 K [mPa·s] | viscosity, 328.15 K [mPa·s]
x1 = 0.0999 | 838.66 ± 0.79 | 834.09 ± 0.81 | 829.48 ± 0.82 | 824.84 ± 0.83 | 820.44 ± 0.85 | 0.725 ± 0.019 | 0.676 ± 0.018 | 0.621 ± 0.017 | 0.588 ± 0.016 | 0.533 ± 0.015
x1 = 0.1999 | 880.62 ± 0.68 | 876.22 ± 0.69 | 871.78 ± 0.7 | 867.32 ± 0.72 | 863.14 ± 0.73 | 0.976 ± 0.024 | 0.906 ± 0.023 | 0.835 ± 0.021 | 0.783 ± 0.02 | 0.72 ± 0.019
x1 = 0.2998 | 914.11 ± 0.6 | 909.92 ± 0.61 | 905.55 ± 0.62 | 901.14 ± 0.63 | 897.17 ± 0.64 | 1.319 ± 0.032 | 1.205 ± 0.029 | 1.1 ± 0.027 | 1.011 ± 0.025 | 0.933 ± 0.023
x1 = 0.3999 | 939.8 ± 0.55 | 935.58 ± 0.56 | 931.38 ± 0.57 | 927.14 ± 0.58 | 923.28 ± 0.59 | 1.778 ± 0.042 | 1.577 ± 0.037 | 1.419 ± 0.034 | 1.29 ± 0.031 | 1.18 ± 0.029
x1 = 0.4998 | 960.97 ± 0.52 | 956.82 ± 0.53 | 952.74 ± 0.54 | 948.57 ± 0.55 | 944.75 ± 0.55 | 2.367 ± 0.054 | 2.079 ± 0.048 | 1.835 ± 0.043 | 1.646 ± 0.039 | 1.459 ± 0.035
x1 = 0.6001 | 977.35 ± 0.51 | 973.31 ± 0.51 | 969.31 ± 0.52 | 965.28 ± 0.53 | 961.59 ± 0.54 | 2.958 ± 0.067 | 2.556 ± 0.059 | 2.243 ± 0.052 | 1.99 ± 0.046 | 1.788 ± 0.042
x1 = 0.6998 | 991.84 ± 0.51 | 987.87 ± 0.51 | 983.92 ± 0.52 | 979.59 ± 0.52 | 976.07 ± 0.53 | 3.767 ± 0.085 | 3.228 ± 0.073 | 2.789 ± 0.064 | 2.437 ± 0.056 | 2.144 ± 0.05
x1 = 0.7999 | 1002.99 ± 0.52 | 998.97 ± 0.52 | 994.93 ± 0.52 | 990.88 ± 0.53 | 987.18 ± 0.53 | 4.783 ± 0.11 | 4.007 ± 0.09 | 3.418 ± 0.077 | 2.936 ± 0.067 | 2.551 ± 0.059
x1 = 0.8999 | 1013.19 ± 0.57 | 1009.18 ± 0.56 | 1005.13 ± 0.55 | 1001.1 ± 0.54 | 997.41 ± 0.54 | 6.06 ± 0.13 | 4.978 ± 0.11 | 4.153 ± 0.093 | 3.507 ± 0.079 | 2.995 ± 0.068
x1 = 1 | 1021.64 ± 0.61 | 1017.63 ± 0.6 | 1013.6 ± 0.59 | 1009.56 ± 0.58 | 1005.93 ± 0.57 | 7.701 ± 0.15 | 6.12 ± 0.13 | 5.022 ± 0.11 | 4.158 ± 0.094 | 3.518 ± 0.08
